{"source": "paper PMC11864979", "about": "“First-in-class ultralong-target-residence-time p38α inhibitors as a mitosis-targeted therapy for colorectal cancer” (Nature Cancer, 2025)", "experiment_in_all_cases": "selectivity profiling in a panel of 340 wild-type kinases (Reaction Biology Europe)", "format_in_all_cases": "binding", "key": {"340 wild-type kinases [1]": {"biological_target": "T1, 340 wild-type kinases (Homo sapiens, UniProt Q9HBY8)", "T1 construct": "purchased Reaction Biology Europe", "T1 sequence (Q9HBY8 1-367)": "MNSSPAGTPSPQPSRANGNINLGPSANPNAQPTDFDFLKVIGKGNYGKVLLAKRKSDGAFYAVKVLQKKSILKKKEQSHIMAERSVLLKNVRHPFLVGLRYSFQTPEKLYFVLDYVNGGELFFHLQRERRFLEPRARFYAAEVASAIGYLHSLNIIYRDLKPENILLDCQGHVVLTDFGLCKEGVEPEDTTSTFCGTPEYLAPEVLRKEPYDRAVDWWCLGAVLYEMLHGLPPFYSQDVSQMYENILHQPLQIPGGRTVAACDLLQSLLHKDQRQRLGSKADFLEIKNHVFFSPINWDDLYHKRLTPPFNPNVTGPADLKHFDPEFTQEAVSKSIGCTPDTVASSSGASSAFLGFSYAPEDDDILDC"}, "340 wild-type kinases [2]": {"biological_target": "T2, 340 wild-type kinases (Homo sapiens, UniProt Q09013)", "T2 construct": "purchased Reaction Biology Europe", "T2 sequence (Q09013 1-629)": "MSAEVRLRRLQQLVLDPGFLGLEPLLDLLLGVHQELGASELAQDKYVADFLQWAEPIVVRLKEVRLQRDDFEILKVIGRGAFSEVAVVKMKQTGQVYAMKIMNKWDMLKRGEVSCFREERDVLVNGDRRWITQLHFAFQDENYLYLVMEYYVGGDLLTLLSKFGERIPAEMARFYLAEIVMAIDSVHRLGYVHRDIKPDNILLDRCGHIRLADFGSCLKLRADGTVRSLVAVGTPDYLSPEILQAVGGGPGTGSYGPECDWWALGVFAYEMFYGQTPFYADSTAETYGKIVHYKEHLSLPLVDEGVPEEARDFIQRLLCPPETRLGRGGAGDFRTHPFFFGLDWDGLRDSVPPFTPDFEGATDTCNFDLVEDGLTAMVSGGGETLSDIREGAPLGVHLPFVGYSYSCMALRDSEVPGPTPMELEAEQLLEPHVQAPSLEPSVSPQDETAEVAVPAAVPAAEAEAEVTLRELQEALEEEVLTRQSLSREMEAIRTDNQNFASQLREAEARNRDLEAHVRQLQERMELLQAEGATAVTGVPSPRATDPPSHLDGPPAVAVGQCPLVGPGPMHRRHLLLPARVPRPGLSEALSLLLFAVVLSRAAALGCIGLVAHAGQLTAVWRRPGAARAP"}, "340 wild-type kinases [3]": {"biological_target": "T3, 340 wild-type kinases (Homo sapiens, UniProt Q8TF76)", "T3 construct": "purchased Reaction Biology Europe", "T3 sequence (Q8TF76 1-798)": "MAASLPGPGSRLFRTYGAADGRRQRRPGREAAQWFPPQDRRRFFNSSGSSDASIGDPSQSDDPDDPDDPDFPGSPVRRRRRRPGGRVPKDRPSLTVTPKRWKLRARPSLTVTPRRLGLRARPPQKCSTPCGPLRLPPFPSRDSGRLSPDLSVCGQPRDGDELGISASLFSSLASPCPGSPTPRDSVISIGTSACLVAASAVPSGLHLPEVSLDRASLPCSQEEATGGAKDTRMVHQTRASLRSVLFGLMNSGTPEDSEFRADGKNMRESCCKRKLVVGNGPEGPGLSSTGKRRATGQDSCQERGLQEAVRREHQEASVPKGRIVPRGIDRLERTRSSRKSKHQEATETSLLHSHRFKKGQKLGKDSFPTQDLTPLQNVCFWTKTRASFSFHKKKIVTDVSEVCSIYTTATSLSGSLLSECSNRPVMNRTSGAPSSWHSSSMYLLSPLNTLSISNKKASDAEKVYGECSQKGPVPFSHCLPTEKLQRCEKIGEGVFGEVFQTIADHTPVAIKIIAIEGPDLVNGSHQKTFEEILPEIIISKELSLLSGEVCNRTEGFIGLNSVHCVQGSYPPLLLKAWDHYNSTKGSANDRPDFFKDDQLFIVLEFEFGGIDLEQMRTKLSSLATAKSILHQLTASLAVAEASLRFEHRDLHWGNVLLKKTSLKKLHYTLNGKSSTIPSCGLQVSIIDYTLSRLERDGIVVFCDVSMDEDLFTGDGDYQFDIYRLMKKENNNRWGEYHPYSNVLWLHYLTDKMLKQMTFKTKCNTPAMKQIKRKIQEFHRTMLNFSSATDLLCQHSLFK"}, "340 wild-type kinases [4]": {"biological_target": "T4, 340 wild-type kinases (Homo sapiens, UniProt P78527)", "T4 construct": "purchased Reaction Biology Europe", "T4 sequence (P78527 whole entry)": "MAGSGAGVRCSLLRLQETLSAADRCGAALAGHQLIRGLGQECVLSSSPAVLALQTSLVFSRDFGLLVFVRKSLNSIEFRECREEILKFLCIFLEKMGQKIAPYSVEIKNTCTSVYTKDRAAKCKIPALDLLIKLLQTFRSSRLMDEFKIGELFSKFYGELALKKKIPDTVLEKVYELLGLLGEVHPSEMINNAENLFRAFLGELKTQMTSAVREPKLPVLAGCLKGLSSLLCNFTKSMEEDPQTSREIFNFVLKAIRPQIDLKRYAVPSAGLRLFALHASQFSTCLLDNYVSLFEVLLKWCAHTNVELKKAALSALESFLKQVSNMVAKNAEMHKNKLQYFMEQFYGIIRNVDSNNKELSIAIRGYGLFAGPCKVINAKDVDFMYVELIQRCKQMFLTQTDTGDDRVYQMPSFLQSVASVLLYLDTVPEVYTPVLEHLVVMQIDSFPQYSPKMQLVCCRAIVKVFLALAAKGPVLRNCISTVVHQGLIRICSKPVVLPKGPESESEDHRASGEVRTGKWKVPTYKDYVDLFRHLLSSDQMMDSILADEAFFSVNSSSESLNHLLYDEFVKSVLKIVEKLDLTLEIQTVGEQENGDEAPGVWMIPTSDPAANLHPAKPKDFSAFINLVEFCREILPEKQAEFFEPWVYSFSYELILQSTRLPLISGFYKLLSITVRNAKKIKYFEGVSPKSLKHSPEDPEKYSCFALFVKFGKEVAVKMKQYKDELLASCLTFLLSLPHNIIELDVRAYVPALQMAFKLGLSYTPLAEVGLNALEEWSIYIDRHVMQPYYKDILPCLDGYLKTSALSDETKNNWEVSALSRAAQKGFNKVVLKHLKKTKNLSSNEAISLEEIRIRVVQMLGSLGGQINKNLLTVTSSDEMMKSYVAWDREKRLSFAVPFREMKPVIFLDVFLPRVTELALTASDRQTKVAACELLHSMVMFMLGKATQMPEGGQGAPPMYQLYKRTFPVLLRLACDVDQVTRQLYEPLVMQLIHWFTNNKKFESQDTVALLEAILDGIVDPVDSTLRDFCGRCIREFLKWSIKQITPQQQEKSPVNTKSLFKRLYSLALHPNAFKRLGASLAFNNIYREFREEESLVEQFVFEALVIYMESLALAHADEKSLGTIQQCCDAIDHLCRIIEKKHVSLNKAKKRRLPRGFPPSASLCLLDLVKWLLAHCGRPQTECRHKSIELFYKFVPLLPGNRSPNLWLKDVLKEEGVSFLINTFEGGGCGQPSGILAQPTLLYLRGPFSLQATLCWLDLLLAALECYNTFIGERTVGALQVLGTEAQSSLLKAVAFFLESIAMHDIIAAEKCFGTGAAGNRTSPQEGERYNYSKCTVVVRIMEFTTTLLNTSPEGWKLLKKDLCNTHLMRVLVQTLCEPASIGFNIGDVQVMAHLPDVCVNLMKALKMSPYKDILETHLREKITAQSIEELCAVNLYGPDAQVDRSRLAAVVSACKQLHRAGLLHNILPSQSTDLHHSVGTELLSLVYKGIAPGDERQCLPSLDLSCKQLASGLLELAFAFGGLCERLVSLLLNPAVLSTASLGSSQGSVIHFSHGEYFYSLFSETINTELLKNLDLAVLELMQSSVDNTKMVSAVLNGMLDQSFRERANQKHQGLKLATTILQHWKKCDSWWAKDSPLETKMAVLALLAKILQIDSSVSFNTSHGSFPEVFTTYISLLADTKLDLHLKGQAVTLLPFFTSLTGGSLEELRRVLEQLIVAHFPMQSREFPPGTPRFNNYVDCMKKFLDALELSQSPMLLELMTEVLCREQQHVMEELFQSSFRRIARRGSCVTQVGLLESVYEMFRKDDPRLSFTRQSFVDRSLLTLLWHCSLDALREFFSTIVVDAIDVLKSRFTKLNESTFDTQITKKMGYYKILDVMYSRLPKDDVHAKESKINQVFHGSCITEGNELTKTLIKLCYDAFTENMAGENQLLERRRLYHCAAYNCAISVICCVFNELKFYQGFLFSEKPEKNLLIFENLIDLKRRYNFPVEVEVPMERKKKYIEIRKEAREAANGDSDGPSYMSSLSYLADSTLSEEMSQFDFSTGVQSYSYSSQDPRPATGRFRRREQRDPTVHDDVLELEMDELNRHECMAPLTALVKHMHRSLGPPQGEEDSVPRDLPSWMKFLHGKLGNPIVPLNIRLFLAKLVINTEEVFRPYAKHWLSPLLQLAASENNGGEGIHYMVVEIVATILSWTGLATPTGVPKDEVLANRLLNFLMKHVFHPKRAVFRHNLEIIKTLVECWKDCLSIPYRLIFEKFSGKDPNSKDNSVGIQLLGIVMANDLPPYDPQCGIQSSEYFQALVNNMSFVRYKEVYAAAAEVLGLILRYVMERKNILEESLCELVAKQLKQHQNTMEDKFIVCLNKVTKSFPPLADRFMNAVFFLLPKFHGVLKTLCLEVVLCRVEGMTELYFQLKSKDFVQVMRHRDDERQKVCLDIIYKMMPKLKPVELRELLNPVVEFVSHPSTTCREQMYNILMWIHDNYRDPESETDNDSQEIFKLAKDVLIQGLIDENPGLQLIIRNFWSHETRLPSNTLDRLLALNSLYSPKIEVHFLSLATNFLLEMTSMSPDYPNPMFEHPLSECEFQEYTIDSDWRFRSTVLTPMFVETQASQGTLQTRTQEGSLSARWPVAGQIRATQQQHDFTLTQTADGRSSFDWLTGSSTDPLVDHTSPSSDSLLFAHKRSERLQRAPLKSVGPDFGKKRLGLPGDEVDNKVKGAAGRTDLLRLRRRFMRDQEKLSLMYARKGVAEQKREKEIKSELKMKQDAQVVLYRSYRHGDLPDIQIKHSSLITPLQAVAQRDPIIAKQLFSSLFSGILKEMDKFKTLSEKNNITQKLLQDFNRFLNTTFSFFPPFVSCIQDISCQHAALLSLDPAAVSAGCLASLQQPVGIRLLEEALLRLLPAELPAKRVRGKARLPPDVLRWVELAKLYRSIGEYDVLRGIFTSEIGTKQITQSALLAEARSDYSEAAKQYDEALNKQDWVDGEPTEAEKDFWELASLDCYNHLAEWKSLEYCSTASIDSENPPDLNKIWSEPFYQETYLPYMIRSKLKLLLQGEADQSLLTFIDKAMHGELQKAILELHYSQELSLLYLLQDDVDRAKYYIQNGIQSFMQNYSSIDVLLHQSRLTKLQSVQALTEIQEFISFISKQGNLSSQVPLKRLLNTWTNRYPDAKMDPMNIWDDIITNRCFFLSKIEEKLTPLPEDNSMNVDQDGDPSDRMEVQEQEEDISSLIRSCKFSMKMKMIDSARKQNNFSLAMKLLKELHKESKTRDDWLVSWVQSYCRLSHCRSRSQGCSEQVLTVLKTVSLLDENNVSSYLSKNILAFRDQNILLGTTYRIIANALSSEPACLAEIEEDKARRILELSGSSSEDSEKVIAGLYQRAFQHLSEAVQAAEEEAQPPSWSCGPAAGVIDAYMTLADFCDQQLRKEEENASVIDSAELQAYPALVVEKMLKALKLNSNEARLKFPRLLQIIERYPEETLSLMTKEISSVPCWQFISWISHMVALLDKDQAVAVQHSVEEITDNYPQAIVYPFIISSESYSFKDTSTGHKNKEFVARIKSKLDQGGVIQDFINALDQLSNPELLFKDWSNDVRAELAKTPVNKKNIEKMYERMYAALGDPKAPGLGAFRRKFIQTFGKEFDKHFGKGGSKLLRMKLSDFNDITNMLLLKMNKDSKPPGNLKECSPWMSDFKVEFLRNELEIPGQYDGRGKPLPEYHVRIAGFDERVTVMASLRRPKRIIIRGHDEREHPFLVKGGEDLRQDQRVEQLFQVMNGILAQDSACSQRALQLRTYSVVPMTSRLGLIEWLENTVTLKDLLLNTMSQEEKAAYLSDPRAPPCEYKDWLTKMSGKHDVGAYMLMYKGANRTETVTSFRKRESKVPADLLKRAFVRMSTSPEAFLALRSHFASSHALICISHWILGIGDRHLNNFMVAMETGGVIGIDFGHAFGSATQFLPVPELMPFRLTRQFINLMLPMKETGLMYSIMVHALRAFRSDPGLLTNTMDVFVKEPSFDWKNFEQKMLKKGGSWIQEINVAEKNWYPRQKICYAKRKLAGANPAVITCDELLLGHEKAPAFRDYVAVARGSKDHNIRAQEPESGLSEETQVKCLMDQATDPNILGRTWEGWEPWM"}}, "note": "Like-named read-outs stand apart in the source and are kept apart here."}
{"smiles": "CNC(=O)c1ccc2c(c1)C(=O)c1ccc(Nc3ccc(F)c(NC(=O)C4CC4)c3)cc1CC2", "note": "[Compound 2015]", "values": [{"measurement": "remaining activity at 0.2 µM", "setting": "340 wild-type kinases [1]; 0.2 µM 2015, read-out: SGK2 residual activity", "value": 109, "unit": "%"}, {"measurement": "remaining activity at 1 µM", "setting": "340 wild-type kinases [1]; 1 µM 2015, read-out: SGK2 residual activity", "value": 104, "unit": "%"}, {"measurement": "remaining activity at 0.2 µM", "setting": "340 wild-type kinases [1]; SGK2, 0.2 µM, read-out: residual activity", "value": 109, "unit": "%"}, {"measurement": "remaining activity at 1 µM", "setting": "340 wild-type kinases [1]; SGK2, 1 µM, read-out: residual activity", "value": 104, "unit": "%"}, {"measurement": "remaining activity at 0.2 µM", "setting": "340 wild-type kinases [2]; 0.2 µM 2015, read-out: DMPK residual activity", "value": 82.9, "unit": "%"}, {"measurement": "remaining activity at 1 µM", "setting": "340 wild-type kinases [2]; 1 µM 2015, read-out: DMPK residual activity", "value": 90.2, "unit": "%"}, {"measurement": "remaining activity at 0.2 µM", "setting": "340 wild-type kinases [2]; DMPK, 0.2 µM, read-out: residual activity", "value": 82.9, "unit": "%"}, {"measurement": "remaining activity at 1 µM", "setting": "340 wild-type kinases [2]; DMPK, 1 µM, read-out: residual activity", "value": 90.2, "unit": "%"}, {"measurement": "remaining activity at 0.2 µM", "setting": "340 wild-type kinases [3]; 0.2 µM 2015, read-out: GSG2 residual activity", "value": 105, "unit": "%"}, {"measurement": "remaining activity at 1 µM", "setting": "340 wild-type kinases [3]; 1 µM 2015, read-out: GSG2 residual activity", "value": 82.5, "unit": "%"}, {"measurement": "remaining activity at 0.2 µM", "setting": "340 wild-type kinases [3]; GSG2, 0.2 µM, read-out: residual activity", "value": 105, "unit": "%"}, {"measurement": "remaining activity at 1 µM", "setting": "340 wild-type kinases [3]; GSG2, 1 µM, read-out: residual activity", "value": 82.5, "unit": "%"}, {"measurement": "remaining activity at 0.2 µM", "setting": "340 wild-type kinases [4]; 0.2 µM 2015, read-out: DNAPK residual activity", "value": 111, "unit": "%"}, {"measurement": "remaining activity at 1 µM", "setting": "340 wild-type kinases [4]; 1 µM 2015, read-out: DNAPK residual activity", "value": 99.6, "unit": "%"}, {"measurement": "remaining activity at 0.2 µM", "setting": "340 wild-type kinases [4]; DNAPK, 0.2 µM, read-out: residual activity", "value": 111, "unit": "%"}, {"measurement": "remaining activity at 1 µM", "setting": "340 wild-type kinases [4]; DNAPK, 1 µM, read-out: residual activity", "value": 99.6, "unit": "%"}]}
